Results on one sequence are retold here after patent US7629317B2, “Control of growth and repair of gastro-intestinal tissues by gastrokines and inhibitors” (The University of Chicago, priority 2001, dated 2009).

“Also recorded” adds a separate entry of the source.

Experiment [1] deals with Streptococcus pneumoniae. Briefly: Growth of other bacteria and fungi. The experiment is classed as cell-based.
Experiment [2] deals with HAE cells. Briefly: Growth of human antrum epithelial (HAE) cells (cell count 4 days later). It is filed as cell-based. As for the experimental part:
To measure growth (left panel), HAE cells were plated in 60-mm dishes. Peptide 77-97 (8 μg/ml), or EGF (50 ng/ml), or both were added to the medium and the number of cells counted 4 days later. […] Values are means±SE for 3 cultures. To measure migration (right panel), cells were grown in 60-mm dishes to prepare a confluent monolayer. The medium was aspirated and replaced with fresh medium containing 0.01% calf serum (CS). The monolayer was mechanically wounded by scraping with a razor blade. Detached cells were removed by aspirating medium, and rinsing the remaining cells twice with fresh medium containing 0.01% CS. Fresh medium (5 ml) containing CS (0.01%) and insulin (100 U/L) was added to wounded cultures. Either peptide 77-97 (8 μg/ml), EGF (50 ng/ml), or both were added to duplicate cultures. Migration was assessed at 24, 48 and 72 hr after wounding by measuring the distance (in mm) that cells had migrated from the wound edge using a microscope eyepiece reticle (10-mm long; 0.1-mm markings). Migrating cells at 12 randomly chosen sites along a 0.25-mm stretch of the wound edge were measured at 40-fold magnification. Migration at 2 different sites was measured for each of 2 separate wounds made in each culture. Values are the mean distance cells moved into the denuded area from the edge of 4 different wounds in 2 cultures±SE.
(§1) To characterize the capacity of gastric and intestinal cells to respond to AMP-18, AGS gastric adenocarcinoma cells, HAE human gastric antrum mucosa primary cultures transformed with SV40 large T antigen, rat diploid small intestinal epithelial cells of the IEC-6 (FIG. 15) and IEC-18 lines, NCI N-87 gastric carcinoma cells, and SK-GT5 gastroesophageal adenocarcinoma cells were studied; human WI-38 fibroblasts and HeLa cells served as non-GI control cell lines. Mitogenesis was assayed by performing cell counts 3 to 4 days after exposing cells to the agent of interest, trypsinizing the culture to prepare single cells, and confirming this while counting them in a hemocytometer.

Experiment [3] has as its system occludin. Put plainly: Occludin in mouse colonic mucosa in vivo (immunoblot of NP-40-insoluble fraction). The following applies: listed as AMP peptide. As for the experimental part:
To look for a systemic effect of treatment with AMP peptide during the development of DSS colitis, body weight was measured. During the first 4 days of DSS administration, body weight changed little in peptide- or vehicle-treated mice. Then DSS was discontinued, the animals were given water to drink (day 0; FIG. 27, right panel), and measurements of weight were continued. […] To better understand how AMP peptide could exert these salutary effects on hematochezia and weight loss in DSS colitis, studies were performed to determine if observations in cultures of C2 cells were also relevant in vivo. Because DSS treatment appeared to injure barrier function in monolayer cultures of C2 cells, assessed as a decrease in TER (FIG. 22) and reduced occludin in the detergent-insoluble fraction (FIG. 36), a question was whether DSS might adversely affect the content of this TJ protein in vivo. Mice (n=10) were given DSS (3%) or water to drink. Four days later animals were killed, the contents of the colon lumen including blood were washed out, and the mucosa was inspected. The colonic epithelial surface of mice given DSS appeared largely intact with no obvious ulcerations or denuded areas. Surface cells of visibly intact mucosa were then collected by scraping with a glass slide. Occludin levels in the NP-40-insoluble fraction were assessed by immunoblotting. […]
In general terms: A western blot detects proteins with antibodies after separation by electrophoresis.

For experiment [4], the system named is Pseudomonas aeruginosa. Briefly: Growth of other bacteria and fungi. The experiment is classed as cell-based.
Experiment [5] has as its system SK-GT5 cells. Briefly: Growth of SK-GT5 gastroesophageal adenocarcinoma cells. The experiment is classed as cell-based. As to conditions: concentration-dependent. Here is the method:
as §1

Experiment [6] relates to occludin, ZO-1, ZO-2, claudin-5, E-cadherin, JAM. Briefly: Accumulation of tight and adherens junction proteins in C2 cells (immunoblot of insoluble fraction, confocal microscopy). The experiment is classed as cell-based, human.
The test system of experiment [7] is MDCK cells. Briefly: Transepithelial electrical resistance (TER) of MDCK cell monolayers. It is filed as cell-based. Here is the method:
Monolayer cultures of MDCK cells were grown on permeable polycarbonate filters (0.4-μm pore size) (Transell) in DMEM containing FBS (2%) without (control) or with peptide 77-97 (8 μg/ml) for 8 days. TER was measured 24 hr after the cells were plated, and at specified times thereafter using an epithelial volt-ohm meter (EVOM, Millipore). Following each measurement, medium containing FBS without or with peptide was changed (0, 48, and 144 hr), and additional peptide 77-97 (8 μg/ml) was added at 30 and 72 hr. At 72 hr, TER in cultures that received peptide 77-97 was twice as high as in control cultures. Values are means for 3 cultures; variance is <10% of the mean. TER was measured from 3 different areas on the filter.
Panel A: When a stable TER was reached (330 Ω·cm^2) in MDCK cell monolayers the medium was changed to DMEM containing FBS (0.2%), and either peptide 77-97 (8 μg/ml) or EGF (50 ng/ml). After 18 hr, peptide 77-97 or EGF were added to the specified wells. One hour later monochloramine (0.1 mM), like the other agents, was added to the apical and basal compartments of the Transwell. […] Panels B, C: Caco2/bbe (C2) subclone monolayers were grown on collagen-coated polycarbonate filters until a stable TER was reached (225 Ω·cm^2). Spent medium was replaced with fresh medium containing FBS (0.1%) alone or with peptide 77-97 (8 μg/ml). After 18 hr, monochloramine (0.3 mM, B) or indomethacin (0.1 mM, C) was added to both compartments of the Transwell. At time 0, cultures received either vehicle (control), vehicle plus oxidant or indomethacin, or peptide 77-97 and oxidant or indomethacin. TER of injured cultures treated with vehicle decreased by ˜35% at 90 min, whereas peptide-treated cultures declined ˜10%.

Experiment [8] concerns HeLa cells. Briefly: Growth of HeLa cells (non-GI control). It is filed as cell-based, human. As to conditions: peptide up to 8 μg/ml. Here is the method: as §1
In experiment [9] the test system is Candida albicans. Briefly: Growth of other bacteria and fungi. It is filed as cell-based.

For the sequence “LDALVKEKKLQGKGPGGPPPK [97–117, peptide 77-97 of the mature protein, same as 97-117 of the human precursor]”, the “growth of Streptococcus pneumoniae” value in [1] was “did not alter the growth”. Moreover, the “proliferation together with EGF” value in experiment [2] (peptide 77-97 8 μg/ml + EGF 50 ng/ml) is “additive”. In experiment [2] (peptide 77-97 8 μg/ml, EGF 50 ng/ml, 4 days), the “proliferation of HAE cells (in words)” value is “stimulated proliferation”. In [3], the “amount of β-catenin in colonic mucosal epithelial cells” value is reported as “did not alter; also recorded: does not alter”. The “growth of Pseudomonas aeruginosa” value in experiment [4] is recorded as “did not alter the growth”. Besides, the “growth of SK-GT5 cells” value in experiment [5] is reported as “stimulated”. Moreover, the “occludin immunoreactivity of peptide-treated cells exposed to DSS” value in experiment [6] (DSS 4%, vehicle-treated declined about 50% at 1 hr, listed as AMP peptide) is recorded as “did not decline; also recorded: not reduced”. The “perijunctional actin, confocal microscopy” value in [6] (oxidant (0.3 mM monochloramine) injury) was “protected”. For the same sequence, the “occludin immunoreactivity at cell junctions, confocal microscopy” value in experiment [6] (pretreated prior to monochloramine 0.3 mM, vs untreated injured cells) was “more intense”. In experiment [7] (by 24 hr and to a greater extent thereafter), the “maturation of TER” value was “increases TER”. For the same sequence, the “TER relative to control cultures” value in [7] (peptide 8 μg/ml, at 72 hr) is given as “twice as high”. For the same sequence, the entries for the “growth stimulation of HeLa cells” value in experiment [8] and in experiment [8] (listed as AMP peptide) were “does not stimulate growth” and “failure”, respectively. The “growth of Candida albicans” value in [9] was “did not alter the growth”.
